US11053253B2, “Macrocyclic compounds for treatment of medical disorders” (Achillion Pharmaceuticals, Inc., priority 2017, dated 2021)

Molecular target: Human Factor D (Homo sapiens (Human), UniProt P00746)
Experiment: Human Factor D Assay
Assay type: biochemical
Conditions: Human Factor D 80 nM, substrate Z-L-Lys-SBzl, DTNB, A405; read-out: IC50 (Stars)
Outline: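 Serum-purified enzyme (80 nM final) was preincubated with compound 5 min at room temperature in 50 mM Tris, 1M NaCl, pH 7.5. Z-L-Lys-SBzl and DTNB ([…] each, final) were added and A405 followed every 30 s for 30 min; IC50 from nonlinear regression of reaction rates.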

Human Factor D, sequence (P00746 26-253): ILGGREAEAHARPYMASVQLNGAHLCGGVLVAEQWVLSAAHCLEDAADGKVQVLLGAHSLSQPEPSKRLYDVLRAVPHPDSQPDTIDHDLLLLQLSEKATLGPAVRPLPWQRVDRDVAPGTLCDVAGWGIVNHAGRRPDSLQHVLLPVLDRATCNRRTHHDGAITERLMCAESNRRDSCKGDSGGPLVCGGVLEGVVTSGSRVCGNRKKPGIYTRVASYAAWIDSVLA

Row | Structure (SMILES) | IC50
1 | Cc1ncc(-c2cc3c4c(c2)c(C(N)=O)nn4CC(=O)N2[C@H](C(=O)Nc4nc(C(F)(F)F)ccc4C)C[C@@]4(CNC(=O)CCCC=CC3)C[C@@H]24)cn1 [Compound T-134] | < 1000 nM
2 | CC(=O)c1nn2c3c(cc(-c4cnc(C)nc4)cc13)CCCCCCCc1cccc(c1)COC[C@@]13C[C@@H](C(=O)Nc4nc(Br)ccc4C)N(C(=O)C2)[C@@H]1C3 [Compound T-136] | < 1000 nM
3 | CC(=O)c1nn2c3c(cc(-c4cnc(C)nc4)cc13)CCCCC=CCc1cccc(n1)OC[C@@]13C[C@@H](C(=O)Nc4nc(Br)ccc4C)N(C(=O)C2)[C@@H]1C3 [Compound T-137] | < 1000 nM
4 | CC(=O)c1nn2c3c(cc(-c4cnc(C)nc4)cc13)COCC=CC(F)(F)C(=O)NC[C@@]13C[C@@H](C(=O)Nc4nc(C(F)(F)F)ccc4C)N(C(=O)C2)[C@@H]1C3 [Compound T-138] | < 1000 nM
5 | CC(=O)c1nn2c3c(cc(-c4cnc(C)nc4)cc13)CCCCCCCc1cccc(n1)OC[C@@]13C[C@@H](C(=O)Nc4nc(Br)ccc4C)N(C(=O)C2)[C@@H]1C3 [Compound T-139] | < 1000 nM
6 | CC(=O)c1nn2c3c(cc(-c4cnc(C)nc4)cc13)CCCCCCc1cccc(n1)OC[C@@]13C[C@@H](C(=O)Nc4nc(Br)ccc4C)N(C(=O)C2)[C@@H]1C3 [Compound T-140] | < 1000 nM
7 | CC(=O)c1nn2c3c(cc(-c4cnc(C)nc4)cc13)CCCCCc1cccc(n1)OC[C@@]13C[C@@H](C(=O)Nc4nc(Br)ccc4C)N(C(=O)C2)[C@@H]1C3 [Compound T-141] | < 1000 nM
8 | Cc1ncc(-c2cc3c4c(c2)c(C(N)=O)nn4CC(=O)N2[C@H](C(=O)Nc4nc(Br)ccc4C)C[C@@]4(CNC(=O)CCCC=CC3)C[C@@H]24)cn1 [Compound T-152] | < 1000 nM
9 | Cc1ncc(-c2cc3c4c(c2)c(C(N)=O)nn4CC(=O)N2[C@H](C(=O)Nc4nc(Br)ccc4C)C[C@@]4(CNC(=O)CCCCCC3)C[C@@H]24)cn1 [Compound T-153] | < 1000 nM
10 | Cc1ncc(-c2cc3c4c(c2)c(C#N)nn4CC(=O)N2[C@H](C(=O)Nc4nc(C(F)(F)F)ccc4C)C[C@@]4(COCC=CCCC3)C[C@@H]24)cn1 [Compound T-154] | < 1000 nM
11 | Cc1ncc(-c2cc3c(C#N)nn4c3c(n2)CCCCCCOC[C@@]23C[C@@H](C(=O)Nc5nc(C(F)(F)F)ccc5C)N(C(=O)C4)[C@@H]2C3)cn1 [Compound T-155] | < 1000 nM
12 | Cc1ncc(-c2cc3c(C(N)=O)nn4c3c(n2)CCCCCCOC[C@@]23C[C@@H](C(=O)Nc5nc(C(F)(F)F)ccc5C)N(C(=O)C4)[C@@H]2C3)cn1 [Compound T-156] | < 1000 nM
13 | CC(=O)c1nn(CC(=O)N2[C@H]3C[C@@]4(CNC(=O)C(F)(F)CCCOCc5ccc(Br)nc5NC3=O)C[C@@H]24)c2ccc(-c3cnc(C)nc3)cc12 [Compound T-157] | < 1000 nM
14 | CC(=O)c1nn(CC(=O)N2C[C@@]3(F)COCCCCOCc4ccc(Br)nc4NC(=O)[C@@H]2C3)c2cnc(-c3cnc(C)nc3)cc12 [Compound T-161] | < 1000 nM
15 | CC(=O)c1nn(CC(=O)N2C[C@@]3(F)COCCCCOCc4ccc(Br)nc4NC(=O)[C@@H]2C3)c2ccc(-c3cnc(C)nc3)cc12 [Compound T-162] | < 1000 nM
16 | CC(=O)c1nn2c3c(nc(-c4cnc(C)nc4)cc13)CCCCCCCOC[C@@]13C[C@@H](C(=O)Nc4nc(C(F)(F)F)ccc4C)N(C(=O)C2)[C@@H]1C3 [Compound T-163] | < 1000 nM
17 | CC(=O)c1nn(CC(=O)N2[C@H]3C[C@@]4(CNC(=O)CCOCc5ccc(Br)nc5NC3=O)C[C@@H]24)c2ccc(-c3cnc(C)nc3)cc12 [Compound T-164] | < 1000 nM
18 | CC(=O)c1nn(CC(=O)N2[C@H]3C[C@@]4(COc5cccc(n5)CCCCCCCc5ccc(Br)nc5NC3=O)C[C@@H]24)c2ccc(-c3cnc(C)nc3)cc12 [Compound T-165] | < 1000 nM
19 | CC(=O)c1nn2c3c(cc(-c4cnc(C)nc4)cc13)CC=CCCCC(=O)NC[C@]1(F)CN(C[C@@H]1C(=O)Nc1nc(C(F)(F)F)ccc1C)C(=O)C2 [Compound T-167] | < 1000 nM
20 | CC(=O)c1nn2c3c(cc(-c4cnc(C)nc4)cc13)CCCCCCC(=O)NC[C@@]1(F)C[C@@H](C(=O)Nc3nc(C(F)(F)F)ccc3C)N(C1)C(=O)C2 [Compound T-168] | < 1000 nM
21 | CC(=O)c1nn(CC(=O)N2C[C@@]3(F)CNC(=O)CCCCCOCc4ccc(Br)nc4NC(=O)[C@@H]2C3)c2cnc(-c3cnc(C)nc3)cc12 [Compound T-169] | < 1000 nM
22 | CC(=O)c1nn(CC(=O)N2C[C@@]3(F)CNC(=O)C(C)(C)CC=CCOCc4ccc(Br)nc4NC(=O)[C@@H]2C3)c2cnc(-c3cnc(C)nc3)cc12 [Compound T-170] | < 1000 nM
23 | CC(=O)c1nn(CC(=O)N2C[C@@]3(F)CNC(=O)C(C)(C)CCCCOCc4ccc(Br)nc4NC(=O)[C@@H]2C3)c2cnc(-c3cnc(C)nc3)cc12 [Compound T-171] | < 1000 nM
24 | CC(=O)c1nn(CC(=O)N2C[C@@]3(F)CNC(=O)C(C)(C)CC=CCOCc4ccc(Br)nc4NC(=O)[C@@H]2C3)c2ccc(-c3cnc(C)nc3)cc12 [Compound T-172] | < 1000 nM
25 | CC(=O)c1nn(CC(=O)N2C[C@@]3(F)CNC(=O)C(C)(C)CCCCOCc4ccc(Br)nc4NC(=O)[C@@H]2C3)c2ccc(-c3cnc(C)nc3)cc12 [Compound T-173] | < 1000 nM

Row | Structure (SMILES) | IC50
26 | CC(=O)c1nn2c3c(cc(-c4cnc(C)nc4)cc13)CC=CCCCC(=O)NC[C@@]1(F)C[C@@H](C(=O)Nc3nc(Br)ccc3C)N(C1)C(=O)C2 [Compound T-174] | < 1000 nM
27 | CC(=O)c1nn2c3c(cc(-c4cnc(C)nc4)cc13)CCCCCCC(=O)NC[C@@]1(F)C[C@@H](C(=O)Nc3nc(Br)ccc3C)N(C1)C(=O)C2 [Compound T-175] | < 1000 nM
28 | CC(=O)c1nn2c3c(cc(-c4cnc(C)nc4)cc13)CCCCCCC(=O)NC[C@@]13C[C@@H](C(=O)N[C@@H](C)c4ccccc4)N(C(=O)C2)[C@@H]1C3 [Compound T-176] | < 1000 nM
29 | CC(=O)c1nn2c3c(cc(-c4cnc(C)nc4)cc13)CCCCCCC(=O)NC[C@@]13C[C@@H](C(=O)NCCC(C)(C)C)N(C(=O)C2)[C@@H]1C3 [Compound T-177] | < 1000 nM
30 | CC(=O)c1nn(CC(=O)N2C[C@@]3(F)CNC(=O)CCCCCOCc4ccc(Br)nc4NC(=O)[C@@H]2C3)c2ccc(-c3cnc(C)nc3)cc12 [Compound T-178] | < 1000 nM
31 | CC(=O)c1nn(CC(=O)N2C[C@@]3(F)COCCCCCCc4ccc(Br)nc4NC(=O)[C@@H]2C3)c2cnc(-c3cnc(C)nc3)cc12 [Compound T-179] | < 1000 nM
32 | CC(=O)c1nn(CC(=O)N2[C@H]3C[C@@]4(CNC(=O)C(C)(C)CCCCCc5ccc(Br)nc5NC3=O)C[C@@H]24)c2cnc(-c3cnc(C)nc3)cc12 [Compound T-180] | < 1000 nM
33 | CC(=O)c1nn(CC(=O)N2[C@H]3C[C@@]4(CNC(=O)C(C)(C)CCCCc5ccc(Br)nc5NC3=O)C[C@@H]24)c2cnc(-c3cnc(C)nc3)cc12 [Compound T-181] | < 1000 nM
34 | CC(=O)c1nn(CC(=O)N2[C@H]3C[C@@]4(CNC(=O)C(C)(C)CCCCCc5ccc(Br)nc5NC3=O)C[C@@H]24)c2ccc(-c3cnc(C)nc3)cc12 [Compound T-182] | < 1000 nM
35 | CC(=O)c1nn(CC(=O)N2[C@H]3C[C@@]4(CNC(=O)C(C)(C)CCCCc5ccc(Br)nc5NC3=O)C[C@@H]24)c2ccc(-c3cnc(C)nc3)cc12 [Compound T-183] | < 1000 nM
36 | CC(=O)c1nn2c3c(cc(-c4cnc(C)nc4)cc13)CC=CCCC(C)(C)C(=O)NC[C@@]13C[C@@H](C(=O)Nc4ccn(CC(F)(F)F)n4)N(C(=O)C2)[C@@H]1C3 [Compound T-184] | < 1000 nM
37 | CC(=O)c1nn2c3c(cc(-c4cnc(C)nc4)cc13)CCCCCC(C)(C)C(=O)NC[C@@]13C[C@@H](C(=O)Nc4ccn(CC(F)(F)F)n4)N(C(=O)C2)[C@@H]1C3 [Compound T-185] | < 1000 nM
38 | CC(=O)c1nn2c3c(cc(-c4cnc(C)nc4)cc13)CCCCCC(C)(C)C(=O)N(C)C[C@@]13C[C@@H](C(=O)Nc4cccc(C(F)(F)F)n4)N(C(=O)C2)[C@@H]1C3 [Compound T-186] | < 1000 nM
39 | Cc1ncc(-c2cc3c4c(c2)c(C(N)=O)nn4CC(=O)N2[C@H](C(=O)Nc4nc(C(F)(F)F)ccc4C)C[C@@]4(COCCCCCCC3)C[C@@H]24)cn1 [Compound T-187] | < 1000 nM
40 | CC(=O)c1nn2c3c(cc(-c4cnc(C)nc4)cc13)CCCCCCC(=O)NC[C@@]13C[C@@H](C(=O)N[C@H](C)c4ccccc4)N(C(=O)C2)[C@@H]1C3 [Compound T-188] | < 1000 nM
41 | CC(=O)c1nn2c3c(cc(-c4cnc(C)nc4)cc13)CC=CCCCC(=O)NC[C@@]13C[C@@H](C(=O)Nc4cc(C)cc(Br)n4)N(C(=O)C2)[C@@H]1C3 [Compound T-189] | < 1000 nM
42 | CC(=O)c1nn2c3c(cc(-c4cnc(C)nc4)cc13)CCCCCCC(=O)NC[C@@]13C[C@@H](C(=O)Nc4cc(C)cc(Br)n4)N(C(=O)C2)[C@@H]1C3 [Compound T-190] | < 1000 nM
43 | CC(=O)c1nn2c3c(cc(-c4cnc(C)nc4)cc13)CCCCCC(C)(C)C(=O)N(C)C[C@@]13C[C@@H](C(=O)Nc4ccn(CC(F)(F)F)n4)N(C(=O)C2)[C@@H]1C3 [Compound T-191] | < 1000 nM
44 | CC(=O)c1nn(CC(=O)N2[C@H]3C[C@@]4(COCC=CCOCc5ccc(Br)nc5NC3=O)C[C@@H]24)c2c(C)cc(-c3cnc(C)nc3)cc12 [Compound T-192] | < 1000 nM
45 | CC(=O)c1nn(CC(=O)N2[C@H]3C[C@@]4(COCC=CCOCc5ccc(Br)nc5NC3=O)C[C@@H]24)c2c(C)nc(-c3cnc(C)nc3)cc12 [Compound T-193] | < 1000 nM
46 | CC(=O)c1nn(CC(=O)N2C[C@@]3(F)COCCCCCCCCc4ccc(Br)nc4NC(=O)[C@@H]2C3)c2ccc(-c3cnc(C)nc3)cc12 [Compound T-194] | < 1000 nM
47 | CC(=O)c1nn(CC(=O)N2C[C@@]3(F)COCCCCCCc4ccc(Br)nc4NC(=O)[C@@H]2C3)c2ccc(-c3cnc(C)nc3)cc12 [Compound T-195] | < 1000 nM
48 | CC(=O)c1nn2c3c(cc(-c4cnc(C)nc4)cc13)CCCCCCC(=O)NC[C@@]13C[C@@H](C(=O)NC[Si](C)(C)C)N(C(=O)C2)[C@@H]1C3 [Compound T-196] | 1000 to 10000 nM
49 | CC(=O)c1nn2c3c(cc(-c4cnc(C)nc4)cc13)CCCCCCC(=O)NC[C@@]13C[C@@H](C(=O)NC/C(F)=C(/C)c4ccccc4)N(C(=O)C2)[C@@H]1C3 [Compound T-197] | < 1000 nM
